Reference: patent EP2272817A1, “PAI-1 INHIBITOR” (Institute of Medicinal Molecular Design, Inc., priority 2008, dated 2009)
Read-outs that look alike come from different tables or passages of the source.

Legend:
recombinant human PAI-1 [1] = target: T1, recombinant human PAI-1 (Homo sapiens, UniProt P05121); assay: Test Example 2: Human PAI-1 Inhibitory Activity (pH 7.4 HEPES buffer, 10 minutes incubation with two-chain tPA); type: biochemical; set-up: purchased Molecular Innovations, Inc; details: read-out: Inhibition Rate of PAI-1 Activity (%)
T1 sequence (P05121 24-402): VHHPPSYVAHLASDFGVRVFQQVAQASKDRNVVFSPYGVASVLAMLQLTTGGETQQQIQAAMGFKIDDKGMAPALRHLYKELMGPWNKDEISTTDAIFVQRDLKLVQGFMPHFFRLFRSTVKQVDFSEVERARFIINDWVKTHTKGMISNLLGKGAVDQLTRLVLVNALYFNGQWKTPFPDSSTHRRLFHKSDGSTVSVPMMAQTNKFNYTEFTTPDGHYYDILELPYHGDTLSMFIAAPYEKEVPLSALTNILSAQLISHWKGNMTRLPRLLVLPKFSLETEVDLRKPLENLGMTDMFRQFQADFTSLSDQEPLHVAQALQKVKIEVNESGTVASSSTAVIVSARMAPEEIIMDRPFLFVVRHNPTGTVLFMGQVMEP
Protocol: 0.1 M HEPES, 0.1 M NaCl. 1 mM EDTA. 0.1 % Polyethylene glycol 8,000 (Hampton Research Corporation),
2 mM Dimethyldecylphoshine oxide [Apo-10] (Fluka Corporation)

recombinant human PAI-1 [2] = target: T1, recombinant human PAI-1; assay: biochemical
recombinant human PAI-1 [3] = target: T1, recombinant human PAI-1; assay: Test Example 4: Human PAI-1 Inhibitory Activity (amount of PAI-1 bound to plate-coated one-chain tPA, ELISA); type: biochemical; set-up: purchased Molecular Innovations, Inc; details: human PAI-1 bound to tPA, read-out: Inhibition Rate of PAI-1 Activity (%); for inhibition at 0.3 µM: Compound Concentration 0.3µM; for inhibition at 1 µM: Compound Concentration 1µM; for inhibition at 3 µM: Compound Concentration 3µM
Protocol: 100 µl of tPA solution, where one-chain recombinant tPA (hereinafter reffered to as tPA; American diagnostica, inc.) had been diluted with Buffer A to acheive a concentration of 10 µg/ml, was added to each well of a 96-well plate (Nunc Maxisorp), and the plate was incubated for one night at 4 °C to be coated with tPA. Then, after suction of tPA solution from the 96-well plate, the plate was rinsed successively with Buffer A and Buffer B. To Buffer B, solutions of the compound according to the present invention dissolved with DMSO (final DMSO concentration: 0.2 %) and recombinant human PAI-1 (Molecular Innovations, Inc.) were added. The mixtures were blended so that the final concentrations would be 0.1 to 3.0 µM and 50 ng/ml respectively, and were incubated for 15 minutes on ice. These mixed solutions were added to the rinsed 96-well plate at 100 µl/well, and incubated for 60 minutes at room temperature. To prepare a calibration curve, PAI-1 solutions without the compound according to the present invention (solutions where the final concentrations being 100, 50, 25, 12.5, 6.25, 3.13, or 1.56 ng/ml PAI-1) were added at 100 µl/well, and the plate was incubated for 60 minutes at room temperature, as standard.
After incubation, the reaction mixture was removed by suction, and each well was rinsed with Wash Buffer. Next, anti-human PAI-1 monoclonal antibody (PROGEN Inc.) diluted with Buffer C to be 3.0 µg/ml was added to the 96-well plate at 100 µl/well, and the plate was incubated for 1 hour at room temperature. After rinsing each well with Wash Buffer, alkaline phosphatase-labeled goat anti-mouse IgG (H+L) (Jackson ImmunoResearch, Inc.) diluted with Buffer D to be 0.12 µg/ml was added at 100 µl/well, and the plate was incubated for 1 hour at room temperature. After rinsing each well with Wash Buffer, 1.0 mg/ml p-Nitrophenyl Phosphate (SIGMA) was added to the 96-well plate at 100 µl/well to start the reaction. After 30 to 60 minutes, 25 µl of 0.5 N NaOH was added to stop the reaction, and the absorbance was measured at 405 nm using a multiplate reader (GENios; TECAN G.M.B.H.).
Based on the calibration curve prepared from the standard wells, amounts of PAI-1 bound to tPA in the wells that had been treated with the compound according to the present invention were calculated, and the PAI-1 inhibition rates by the compounds according to the present invention were obtained by the following equation. [API-1InhibitionRate(%)] = [1-(amountofPAI-1boundtotPaonthewellbytreatmentwiththecompondaccordingtothepresentinvention)/(amountofPAI-1boundtotPAonthewellbytreatmentwithPAI-1solutionnotincledingthecompondaccordingtotheinvention(solution having the final concentration of 50 nb/ml PAI-1)] × 100 [formula] • <Composition of Buffer A> 0.1 M Tris-HCl, 150 mM NaCl, pH 7.7 • <Composition of Buffer B> 50 mM sodium phosphate, 0.1 M NaCl, 1 mM EDTA, pH 6.6 • <Composition of Buffer C> 50 mM sodium phosphate, 100 mM NaCl, pH 7.4 • <Composition of Buffer D> 0.01 M Tris-HCl, 0.25 M NaCl, pH 8.0 • <Compositon of Wash Buffer> 0.05 % Tween 20, 0.1 % BSA in Buffer A • <Composition of p-Nitrophenyl Phosphate solution> 1 M Diethanolamine 0.5 mM MgCl2, p-Nitrophenyl phosphate, pH 9.8

recombinant rat PAI-1 = target: T2, recombinant rat PAI-1 (Rattus norvegicus, UniProt P20961); assay: biochemical; details: read-out: Inhibition Rate of PAI-1 Activity (%)
T2 sequence (P20961 24-402): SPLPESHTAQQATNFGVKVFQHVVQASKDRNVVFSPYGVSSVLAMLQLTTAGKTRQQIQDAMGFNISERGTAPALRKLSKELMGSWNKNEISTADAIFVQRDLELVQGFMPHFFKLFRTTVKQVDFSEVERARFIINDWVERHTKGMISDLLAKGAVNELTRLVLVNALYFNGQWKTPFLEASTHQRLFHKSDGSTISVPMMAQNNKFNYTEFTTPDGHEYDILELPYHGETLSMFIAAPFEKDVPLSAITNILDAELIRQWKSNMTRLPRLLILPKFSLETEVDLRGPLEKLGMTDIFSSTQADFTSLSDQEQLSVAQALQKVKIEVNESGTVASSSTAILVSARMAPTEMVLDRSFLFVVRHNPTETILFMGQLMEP

[4] = read-out: Inhibition Rate of PAI-1 Activity (%)
[5] = read-out: Inhibition Rate of PAI-1 Activity (%), Compound Concentration 5µM
[6] = read-out: Inhibition Rate of PAI-1 Activity (%), Compound Concentration 10µM
[7] = read-out: Inhibition Rate of PAI-1 Activity (%), Compound Concentration 25µM

inhibition at 5 µM (recombinant human PAI-1 [2]; [4]) [%]	inhibition at 10 µM (recombinant human PAI-1 [2]; [4]) [%]	inhibition at 25 µM (recombinant human PAI-1 [2]; [4]) [%]	Structure (SMILES)	inhibition at 0.1 µM (recombinant human PAI-1 [1]) [%]	inhibition at 0.3 µM (recombinant human PAI-1 [1]) [%]	inhibition at 1 µM (recombinant human PAI-1 [1]) [%]	inhibition at 3 µM (recombinant human PAI-1 [1]) [%]	inhibition at 0.3 µM (recombinant human PAI-1 [3]) [%]	inhibition at 1 µM (recombinant human PAI-1 [3]) [%]	inhibition at 3 µM (recombinant human PAI-1 [3]) [%]	inhibition at 0.3 µM (recombinant rat PAI-1) [%]	inhibition at 1 µM (recombinant rat PAI-1) [%]	inhibition at 3 µM (recombinant rat PAI-1) [%]	inhibition at 10 µM (recombinant rat PAI-1) [%]	inhibition at 5 µM (recombinant human PAI-1 [2]; [5]) [%]	inhibition at 10 µM (recombinant human PAI-1 [2]; [6]) [%]	inhibition at 25 µM (recombinant human PAI-1 [2]; [7]) [%]
43	82	94	CC(C)(C)c1ccc(Oc2cc(-c3ccc(OC(F)(F)F)cc3)ccc2CCC(=O)O)cc1 [Compound 80]	3	11	44	> 99	0	0	29	0	11	71	84			
			Cc1ccc(N(Cc2ccc(C(C)(C)C)cc2)C(=O)C(=O)O)cc1-c1ccc(OC(F)(F)F)cc1 [Compound 176]	0	10	21	96	9	9	29	0	23	71	> 99	65	94	91
			CCC(CC)Oc1ccc(N(Cc2ccc(C(C)(C)C)cc2)C(=O)C(=O)O)cc1-c1ccc(OC(F)(F)F)cc1 [Compound 197]	6	1	38	> 99	21	34	73	0	37	84	75	90	92	73
			CC(C)(Oc1cc(-c2ccc(OC(F)(F)F)cc2)ccc1OCc1ccc(C(C)(C)C)cc1)C(=O)O [Compound 106]	0	8	39	97	0	7	17	0	16	85	> 99	50	85	93
			CC(C)(C)c1ccc(CN(C(=O)C(=O)O)c2cc(-c3ccc(OC(F)(F)F)cc3)cc(C(F)(F)F)c2)cc1 [Compound 139]	0	3	30	97	6	10	32	0	22	85	88	25	59	66
